Laboratory results: patent US11370796B2, “Substituted pyrazoles as LRRK2 inhibitors” (OSCOTEC INC., priority 2017, dated 2022)
pIC50: −log10 of the molar value.

These compounds were tested against LRRK2 (leucine-rich repeat kinase 2) (Homo sapiens (Human), UniProt Q5S007) (assay: Inhibitory effect on LRRK2 in vitro (LANCE kinase assay)). Settings: Table 1, class symbols; read-out: LRRK2 inhibition rate (IC50).
LRRK2 (leucine-rich repeat kinase 2), sequence (Q5S007 whole entry): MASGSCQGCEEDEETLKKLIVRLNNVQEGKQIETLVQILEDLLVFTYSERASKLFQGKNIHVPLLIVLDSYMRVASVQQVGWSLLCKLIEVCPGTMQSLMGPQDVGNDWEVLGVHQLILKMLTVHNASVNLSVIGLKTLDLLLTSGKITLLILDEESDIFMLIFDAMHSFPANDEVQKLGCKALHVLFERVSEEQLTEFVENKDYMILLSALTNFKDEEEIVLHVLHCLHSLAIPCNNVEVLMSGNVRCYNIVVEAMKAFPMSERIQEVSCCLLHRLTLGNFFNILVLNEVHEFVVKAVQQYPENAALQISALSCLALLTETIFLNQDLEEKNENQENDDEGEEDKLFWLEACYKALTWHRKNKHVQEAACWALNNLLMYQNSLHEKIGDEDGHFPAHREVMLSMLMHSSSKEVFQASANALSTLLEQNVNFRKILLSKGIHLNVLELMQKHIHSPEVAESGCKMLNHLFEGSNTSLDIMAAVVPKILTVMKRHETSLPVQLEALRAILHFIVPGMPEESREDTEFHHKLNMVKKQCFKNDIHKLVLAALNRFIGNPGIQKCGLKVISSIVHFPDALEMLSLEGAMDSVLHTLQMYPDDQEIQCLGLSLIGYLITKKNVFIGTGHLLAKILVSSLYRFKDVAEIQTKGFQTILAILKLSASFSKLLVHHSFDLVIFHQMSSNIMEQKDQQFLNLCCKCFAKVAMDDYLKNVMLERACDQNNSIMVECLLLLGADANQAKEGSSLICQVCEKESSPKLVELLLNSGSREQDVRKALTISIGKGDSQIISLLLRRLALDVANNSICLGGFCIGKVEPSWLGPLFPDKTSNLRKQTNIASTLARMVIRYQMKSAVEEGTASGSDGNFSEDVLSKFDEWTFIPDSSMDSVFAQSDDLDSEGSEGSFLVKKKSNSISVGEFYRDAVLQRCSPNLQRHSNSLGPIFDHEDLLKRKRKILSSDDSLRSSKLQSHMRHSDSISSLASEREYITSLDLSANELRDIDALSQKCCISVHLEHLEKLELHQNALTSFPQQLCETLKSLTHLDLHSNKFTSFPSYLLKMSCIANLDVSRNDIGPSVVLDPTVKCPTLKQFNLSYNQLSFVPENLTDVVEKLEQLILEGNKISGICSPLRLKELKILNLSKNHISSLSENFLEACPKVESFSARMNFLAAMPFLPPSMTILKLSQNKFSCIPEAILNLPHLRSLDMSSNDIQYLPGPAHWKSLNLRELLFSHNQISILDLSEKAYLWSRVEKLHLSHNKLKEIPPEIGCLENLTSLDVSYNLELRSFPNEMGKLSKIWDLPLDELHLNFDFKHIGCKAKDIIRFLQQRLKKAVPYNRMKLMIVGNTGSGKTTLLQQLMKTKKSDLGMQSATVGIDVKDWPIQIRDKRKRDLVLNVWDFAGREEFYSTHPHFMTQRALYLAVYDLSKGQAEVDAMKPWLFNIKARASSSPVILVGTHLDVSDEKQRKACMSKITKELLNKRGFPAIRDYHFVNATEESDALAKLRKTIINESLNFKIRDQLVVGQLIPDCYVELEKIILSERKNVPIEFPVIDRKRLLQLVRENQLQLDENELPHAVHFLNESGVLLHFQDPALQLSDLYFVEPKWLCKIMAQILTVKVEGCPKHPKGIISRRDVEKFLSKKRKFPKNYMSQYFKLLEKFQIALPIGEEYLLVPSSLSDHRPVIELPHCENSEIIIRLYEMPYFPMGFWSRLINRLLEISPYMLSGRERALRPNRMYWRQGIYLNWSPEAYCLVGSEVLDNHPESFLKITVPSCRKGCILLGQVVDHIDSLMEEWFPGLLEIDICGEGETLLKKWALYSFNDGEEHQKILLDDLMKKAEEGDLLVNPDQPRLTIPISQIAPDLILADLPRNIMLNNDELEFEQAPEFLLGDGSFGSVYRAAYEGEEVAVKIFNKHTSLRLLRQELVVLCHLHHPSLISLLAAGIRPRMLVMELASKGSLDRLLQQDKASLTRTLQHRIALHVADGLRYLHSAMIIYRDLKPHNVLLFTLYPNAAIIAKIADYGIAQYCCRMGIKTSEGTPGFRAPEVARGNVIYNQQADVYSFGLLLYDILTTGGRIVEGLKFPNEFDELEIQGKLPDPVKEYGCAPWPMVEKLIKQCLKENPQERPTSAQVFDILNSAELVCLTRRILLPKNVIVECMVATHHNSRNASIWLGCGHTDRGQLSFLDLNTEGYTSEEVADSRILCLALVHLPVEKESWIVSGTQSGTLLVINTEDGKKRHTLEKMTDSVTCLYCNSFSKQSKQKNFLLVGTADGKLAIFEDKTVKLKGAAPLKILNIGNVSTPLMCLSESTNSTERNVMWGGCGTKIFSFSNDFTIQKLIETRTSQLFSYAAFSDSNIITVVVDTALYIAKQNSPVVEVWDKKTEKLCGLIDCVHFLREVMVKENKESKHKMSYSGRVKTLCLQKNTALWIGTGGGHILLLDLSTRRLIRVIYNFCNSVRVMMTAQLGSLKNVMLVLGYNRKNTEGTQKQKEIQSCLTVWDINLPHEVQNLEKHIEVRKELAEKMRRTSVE
Format: biochemical
Method: The inhibitory effect of Compounds 1 to 62 on LRRK2 (leucine-rich repeat kinase 2) in vitro was measured. In the analysis of the results, IC50 values were calculated for a quantitative comparison of the in vitro activity.
After the compound was dissolved in 100% DMSO at 10 mM, it was serially diluted to the range of 1 μM to 10 μM using biochemical LRRK2 assay buffer (50 mM HEPES (4-(2-hydroxyethyl)-1-piperazineethanesulfonic acid) pH 7.5, 10 mM MgCl2, 1 mM EGTA (1,2-bis(o-aminophenoxy)ethane-N,N,N′,N′-tetraacetic acid), 2 mM DTT (dithiothreitol), and 0.01% TWEEN-20 (Aldrich)). Purified LRRK2 (CARNA BIOSCIENCES) was added to a black U-bottom 96-well microtiter plate containing 6 μl of the serially diluted compound, followed by incubation at room temperature for 30 minutes. For the kinase reaction, ATP and a substrate solution specific urea-polypeptide (ULIGHT™-poly TK, PerkinElimer) were added. The reaction was carried out at room temperature for 1 hour, and it was detected with an detection solution (brand name: LANCE™) containing EDTA. A LANCE detection solution containing europium-labeled antibody ([…] PT66) was added, followed by incubation at room temperature for 50 minutes, to terminate the kinase experiment. The phosphorylated substrate was detected by 665 nm emission measurement. IC50 values were calculated by a non-linear regression analysis using a Prism program (PRISM™ software) with reference to the absence of a kinase inhibitor.
As a comparative assay, a compound LRR2-IN-1, that known to be a reference compound for LRRK2 inhibitor, have also tested an inhibitory activity.
Work on `CC(C)n1cc(Nc2ncc3c(Cl)cn(C)c3n2)c(Cl)n1` [Compound 3, 5-chloro-N-(3-chloro-1-isopropyl-1H-pyrazol-4-yl)-7-methyl-7H-pyrrolo[2,3-d]pyrimidin-2-amine] yielded a pIC50 of 7.00 to 8.00. In the case of `CCn1cc(Cl)c2cnc(Nc3cn(CCOC)nc3Cl)nc21` [Compound 12, 5-chloro-N-(3-chloro-1-(2-methoxyethyl)-1H-pyrazol-4-yl)-7-ethyl-7H-pyrrolo[2,3-d]pyrimidin-2-amine], the pIC50 was 7.00 to 8.00. For `CCn1nc(Cl)c2cnc(Nc3cn(C4CCN(C(=O)N5CCOCC5)CC4)nc3Cl)nc21` [Compound 54, (4-(3-chloro-4-(3-chloro-1-ethyl-1H-pyrazolo[3,4-d]pyrimidin-6-ylamino)-1H-pyrazol-1-yl)piperidin-1-yl)(morpholino)methanone], the pIC50 was greater than 8.00. `CCn1nc(Cl)c2cnc(Nc3cn(C4CCN(S(=O)(=O)C5CC5)CC4)nc3Cl)nc21` [Compound 47, 3-chloro-N-(3-chloro-1-(1-(cyclopropylsulfonyl)piperidin-4-yl)-1H-pyrazol-4-yl)-1-ethyl-1H-pyrazolo[3,4-d]pyrimidin-6-amine] gave a pIC50 greater than 8.00. `CCn1cc(Cl)c2cnc(Nc3cn(C4CN(C(=O)C5CC5)C4)nc3Cl)nc21` [Compound 41, (3-(3-chloro-4-(5-chloro-7-ethyl-7H-pyrrolo[2,3-d]pyrimidin-2-ylamino)-1H-pyrazol-1-yl)azetidin-1-yl)(cyclopropyl)methanone] showed a pIC50 of 7.00 to 8.00. For `CCn1nc(Cl)c2cnc(Nc3c(Cl)nn(C4CCN(C(=O)C5CC5)CC4)c3C)nc21` [Compound 56, (4-(3-chloro-4-(3-chloro-1-ethyl-1H-pyrazolo[3,4-d]pyrimidin-6-ylamino)-5-methyl-1H-pyrazol-1-yl)piperidin-1-yl)(cyclopropyl)methanone], the pIC50 was 6.00 to 7.00. Compound `CCn1nc(Cl)c2cnc(Nc3cn(C4CCN(C(=O)C(C)(C)C)CC4)nc3Cl)nc21` [Compound 53, 1-(4-(3-chloro-4-(3-chloro-1-ethyl-1H-pyrazolo[3,4-d]pyrimidin-6-ylamino)-1H-pyrazol-1-yl)piperidin-1-yl)-2,2-dimethylpropane-1-one] has a pIC50 greater than 8.00. In the case of `CCn1cc(Cl)c2cnc(Nc3cn(C4CCN(C(=O)C(C)(C)C)CC4)nc3Cl)nc21` [Compound 33, 1-(4-(3-chloro-4-(5-chloro-7-ethyl-7H-pyrrolo[2,3-d]pyrimidin-2-ylamino)-1H-pyrazol-1-yl)piperidin-1-yl)-2,2-dimethylpropane-1-one], the pIC50 was greater than 8.00. Work on `CC(C)n1cc(Nc2ncc3c(Cl)cn(C(C)C)c3n2)c(Cl)n1` [Compound 7, 5-chloro-N-(3-chloro-1-isopropyl-1H-pyrazol-4-yl)-7-isopropyl-7H-pyrrolo[2,3-d]pyrimidin-2-amine] yielded a pIC50 of 7.00 to 8.00. `CC(=O)N1CCC(n2ncc(Nc3ncc4c(Cl)cn(C)c4n3)c2Cl)CC1` [Compound 23, 1-(4-(5-chloro-4-(5-chloro-7-methyl-7H-pyrrolo[2,3-d]pyrimidin-2-ylamino)-1H-pyrazol-1-yl)piperidin-1-yl)ethanone] showed a pIC50 of 7.00 to 8.00. Compound `CCn1cc(Cl)c2cnc(Nc3cn(C4CN(S(C)(=O)=O)C4)nc3Cl)nc21` [Compound 40, 5-chloro-N-(3-chloro-1-(1-(methylsulfonyl)azetidin-3-yl)-1H-pyrazol-4-yl)-7-ethyl-7H-pyrrolo[2,3-d]pyrimidin-2-amine] has a pIC50 of 7.00 to 8.00. Work on `CCn1cc(Cl)c2cnc(Nc3cn(C4CCN(C(=O)C5CC5)CC4)nc3Cl)nc21` [Compound 24, (4-(3-chloro-4-(5-chloro-7-ethyl-7H-pyrrolo[2,3-d]pyrimidin-2-ylamino)-1H-pyrazol-1-yl)piperidin-1-yl)(cyclopropyl)methanone] yielded a pIC50 of 7.00 to 8.00. For `CCn1cc(Cl)c2cnc(Nc3cn(C(C)C)nc3Cl)nc21` [Compound 8, 5-chloro-N-(3-chloro-1-isopropyl-1H-pyrazol-4-yl)-7-ethyl-7H-pyrrolo[2,3-d]pyrimidin-2-amine], the pIC50 was 7.00 to 8.00. Work on `CCn1cc(Cl)c2cnc(Nc3cn(C4CCN(C)CC4)nc3Cl)nc21` [Compound 17, 5-chloro-N-(3-chloro-1-(1-methylpiperidin-4-yl)-1H-pyrazol-4-yl)-7-ethyl-7H-pyrrolo[2,3-d]pyrimidin-2-amine] yielded a pIC50 of 7.00 to 8.00. In the case of `CCn1cc(Cl)c2cnc(Nc3cnn(-c4ccc(Cl)cc4)c3Cl)nc21` [Compound 22, 5-chloro-N-(5-chloro-1-(4-chlorophenyl)-1H-pyrazol-4-yl)-7-ethyl-7H-pyrrolo[2,3-d]pyrimidin-2-amine], the pIC50 was 6.00 to 7.00. `CCn1cc(Cl)c2cnc(Nc3cn([C@@H]4CCN(C(=O)C5CCCC5)C4)nc3Cl)nc21` [Compound 38, (R)-(3-(3-chloro-4-(5-chloro-7-ethyl-7H-pyrrolo[2,3-d]pyrimidin-2-ylamino)-1H-pyrazol-1-yl)pyrrolidin-1-yl)(cyclopentyl)methanone] showed a pIC50 of 7.00 to 8.00. `CCn1cc(Cl)c2cnc(Nc3cn([C@H]4CCN(S(C)(=O)=O)C4)nc3Cl)nc21` [Compound 37, (S)-5-chloro-N-(3-chloro-1-(1-(methylsulfonyl)pyrrolidin-3-yl)-1H-pyrazol-4-yl)-7-ethyl-7H-pyrrolo[2,3-d]pyrimidin-2-amine] gave a pIC50 of 7.00 to 8.00. In the case of `Cn1ncc(Nc2ncc3c(Cl)cn(C)c3n2)c1Cl` [Compound 5, 5-chloro-N-(5-chloro-1-methyl-1H-pyrazol-4-yl)-7-methyl-7H-pyrrolo[2,3-d]pyrimidin-2-amine], the pIC50 was 7.00 to 8.00. For `CCn1cc(Cl)c2cnc(Nc3cnn(C4COC4)c3Cl)nc21` [Compound 16, 5-chloro-N-(5-chloro-1-(oxetan-3-yl)-1H-pyrazol-4-yl)-7-ethyl-7H-pyrrolo[2,3-d]pyrimidin-2-amine], the pIC50 was 7.00 to 8.00. Compound `CCn1cc(Cl)c2cnc(Nc3cn(C4CC4)nc3Cl)nc21` [Compound 14, 5-chloro-N-(3-chloro-1-cyclopropyl-1H-pyrazol-4-yl)-7-ethyl-7H-pyrrolo[2,3-d]pyrimidin-2-amine] has a pIC50 of 7.00 to 8.00. With `CCn1nc(Cl)c2cnc(Nc3cn(C4CCCN(C(=O)C5CC5)CC4)nc3Cl)nc21` (stereo not drawn) [Compound 52, (4-(3-chloro-4-(3-chloro-1-ethyl-1H-pyrazolo[3,4-d]pyrimidin-6-ylamino)-1H-pyrazol-1-yl)azepan-1-yl)(cyclopropyl)methanone] the pIC50 was greater than 8.00. For `CS(=O)(=O)N1CCC(n2cc(Nc3ncc4c(Cl)nn(C5CC5)c4n3)c(Cl)n2)CC1` [Compound 46, 3-chloro-N-(3-chloro-1-(1-(methylsulfonyl)piperidin-4-yl)-1H-pyrazol-4-yl)-1-cyclopropyl-1H-pyrazolo[3,4-d]pyrimidin-6-amine], the pIC50 was greater than 8.00. With `CCn1cc(Cl)c2cnc(Nc3cn([C@@H]4CCN(S(C)(=O)=O)C4)nc3Cl)nc21` [Compound 36, (R)-5-chloro-N-(3-chloro-1-(1-(methylsulfonyl)pyrrolidin-3-yl)-1H-pyrazol-4-yl)-7-ethyl-7H-pyrrolo[2,3-d]pyrimidin-2-amine] the pIC50 was 7.00 to 8.00. `CCn1nc(Cl)c2cnc(Nc3cn(C4CCN(C(=O)C(F)(F)F)CC4)nc3Cl)nc21` [Compound 48, 1-(4-(3-chloro-4-(3-chloro-1-ethyl-1H-pyrazolo[3,4-d]pyrimidin-6-ylamino)-1H-pyrazol-1-yl)piperidin-1-yl)-2,2,2-trifluoroethanone] was tested, and the pIC50 was 7.00 to 8.00. `CCn1cc(Cl)c2cnc(Nc3cn(-c4ccc(F)cc4)nc3Cl)nc21` [Compound 21, 5-chloro-N-(3-chloro-1-(4-fluorophenyl)-1H-pyrazol-4-yl)-7-ethyl-7H-pyrrolo[2,3-d]pyrimidin-2-amine] was tested, and the pIC50 was 6.00 to 7.00. In the case of `CCn1cc(Cl)c2cnc(Nc3cn(C4CCN(C(=O)N5CCN(C)CC5)CC4)nc3Cl)nc21` [Compound 32, (4-(3-chloro-4-(5-chloro-7-ethyl-7H-pyrrolo[2,3-d]pyrimidin-2-ylamino)-1H-pyrazol-1-yl)piperidin-1-yl)(4-methylpiperazin-1-yl)methanone], the pIC50 was greater than 8.00. For `COCCn1cc(Nc2ncc3c(Cl)cn(C)c3n2)c(C(F)(F)F)n1` [Compound 10, 5-chloro-N-(1-(2-methoxyethyl)-3-(trifluoromethyl)-1H-pyrazol-4-yl)-7-methyl-7H-pyrrolo[2,3-d]pyrimidin-2-amine], the pIC50 was 6.00 to 7.00. For `CCn1nc(Cl)c2cnc(Nc3cn(C4CN(C(=O)C5CC5)C4)nc3Cl)nc21` [Compound 60, (3-(3-chloro-4-(3-chloro-1-ethyl-1H-pyrazolo[3,4-d]pyrimidin-6-ylamino)-1H-pyrazol-1-yl)azetidin-1-yl)(cyclopropyl)methanone], the pIC50 was 7.00 to 8.00. `COc1nn(C(C)C)cc1Nc1ncc2c(Cl)cn(C)c2n1` [Compound 2, 5-chloro-N-(1-isopropyl-3-methoxy-1H-pyrazol-4-yl)-7-methyl-7H-pyrrolo[2,3-d]pyrimidin-2-amine] gave a pIC50 of 7.00 to 8.00. Compound `CCn1cc(Cl)c2cnc(Nc3cn(C4CCN(S(C)(=O)=O)CC4)nc3Cl)nc21` [Compound 25, 5-chloro-N-(3-chloro-1-(1-(methylsulfonyl)piperidin-4-yl)-1H-pyrazol-4-yl)-7-ethyl-7H-pyrrolo[2,3-d]pyrimidin-2-amine] has a pIC50 greater than 8.00.

Same assay, conditions: purified LRRK2, Table 6; read-out: IC50
`CCn1nc(Cl)c2cnc(Nc3cn(C4CCN(S(=O)(=O)C5CC5)CC4)nc3Cl)nc21` [Compound 47, 3-chloro-N-(3-chloro-1-(1-(cyclopropylsulfonyl)piperidin-4-yl)-1H-pyrazol-4-yl)-1-ethyl-1H-pyrazolo[3,4-d]pyrimidin-6-amine] showed a pIC50 of 8.19. In the case of `CCn1cc(Cl)c2cnc(Nc3cn(C4CCN(C(=O)C(C)(C)C)CC4)nc3Cl)nc21` [Compound 33, 1-(4-(3-chloro-4-(5-chloro-7-ethyl-7H-pyrrolo[2,3-d]pyrimidin-2-ylamino)-1H-pyrazol-1-yl)piperidin-1-yl)-2,2-dimethylpropane-1-one], the pIC50 was 8.22. `CCn1nc(Cl)c2cnc(Nc3cn(C4CCCN(C(=O)C5CC5)CC4)nc3Cl)nc21` (stereo not drawn) [Compound 52, (4-(3-chloro-4-(3-chloro-1-ethyl-1H-pyrazolo[3,4-d]pyrimidin-6-ylamino)-1H-pyrazol-1-yl)azepan-1-yl)(cyclopropyl)methanone] was tested, and the pIC50 was 8.25. Compound `CS(=O)(=O)N1CCC(n2cc(Nc3ncc4c(Cl)nn(C5CC5)c4n3)c(Cl)n2)CC1` [Compound 46, 3-chloro-N-(3-chloro-1-(1-(methylsulfonyl)piperidin-4-yl)-1H-pyrazol-4-yl)-1-cyclopropyl-1H-pyrazolo[3,4-d]pyrimidin-6-amine] has a pIC50 of 8.10. With `CCn1cc(Cl)c2cnc(Nc3cn(C4CCN(C(=O)N5CCN(C)CC5)CC4)nc3Cl)nc21` [Compound 32, (4-(3-chloro-4-(5-chloro-7-ethyl-7H-pyrrolo[2,3-d]pyrimidin-2-ylamino)-1H-pyrazol-1-yl)piperidin-1-yl)(4-methylpiperazin-1-yl)methanone] the pIC50 was 8.60. Work on `CCn1cc(Cl)c2cnc(Nc3cn(C4CCN(S(C)(=O)=O)CC4)nc3Cl)nc21` [Compound 25, 5-chloro-N-(3-chloro-1-(1-(methylsulfonyl)piperidin-4-yl)-1H-pyrazol-4-yl)-7-ethyl-7H-pyrrolo[2,3-d]pyrimidin-2-amine] yielded a pIC50 of 8.18.
